According to patent US20050031652A1, “Compositions and methods comprising memantine and polyanionic polymers” (priority 2003, published 2005):
Counter-ions that a name gives are not always drawn.

Legend:
[1] = Retina levels after topical versus oral dosing over seven days (Example 9); settings: albino, rabbit, in vivo, 1.76 mg/kg/day
Method: Once a day topical dosing of 0.37% memantine HCl (w/v) borate buffered solution (0.242 mg/kg/day), was compared to daily oral dosing of memantine HCL, 1.76 mg/kg/day, in albino rabbits over seven days. […] Peak levels obtained by topical dosing far exceeded levels thought to be possible by oral dosing. […] Thus, topical dosing of this formulation is […].

in vivo = settings: rabbit, po, 2 mg/kg
Method: Tissue concentrations of memantine were determined after oral and topical dosing. Rabbits were dosed topically with 35 μl of a 0.1% (w/v) aqueous solution of radiolabeled memantine twice a day to both eyes for 7 days (equivalent to approximately 0.07 mg/kg/day). This composition is detailed in Table 1 as Composition 2. Another subset of rabbits was dosed orally with 2 mg/kg radiolabeled memantine for seven days. At the end of the dosing period ocular tissue concentrations were quantified.

[2] = Human oral clinical pharmacokinetic study; assay type: in vivo
Method: Assuming a 31% protein binding and a retina-choroid concentration equivalent to the free-unbound plasma memantine concentration, the peak retinal level of memantine would be 0.30 μM.

[3] = cited from earlier work
[4] = assumed for the calculation; cited from earlier work
[5] = Autoradiography after topical ophthalmic instillation; assay type: in vivo, rabbit
Method: General disposition of topical ophthalmic 1-amino-3,5-dimethyladamantane hydrochloride (memantine) instillation was assessed by autoradiography. Briefly, albino and pigmented rabbits were dosed via topical ophthalmic instillation with a 0.74% (w/v) aqueous isotonic memantine solution having a pH of 7.4. After dosing, autoradiographic sections of the eye were acquired at 0.25, 0.5, 1, and 2 and 24 hours post dosing.

Rabbits = test: Five day toxicology study, topical dosing twice a day; assay type: in vivo, rabbit; settings: CMC based versus borate buffered formulations
Method: This study was followed up by a five day toxicology study which included borate buffered formulations ranging from 0.1 to 0.75% (w/v) memantine, CMC based formulations ranging from 0.1 to 1.0% (w/v) memantine and the relevant placebos. All formulations were preserved with 20 ppm BAK.
The formulations were dosed with 35 μL drops topically to the cul-de-sac of rabbits twice a day for […]. The rabbits were evaluated by gross clinical observation of irritation, ranked as none, slight, mild, moderate or severe. The irritation score was a sum of lacrimation, chemosis, hyperemia and tolerability all scored from none to severe.

Q: For `CC12CC3CC(C)(C1)CC(N)(C3)C2` [memantine, 1-amino-3,5-dimethyladamantane hydrochloride], which concentration at 7 days [1] is on record?
A: 100 ng/mL

Q: And the concentration at 7 days (in vivo)?
A: 107 ng/mL

Q: What about the “peak retinal level (calculated)” value ([2]; oral 20 mg per day, assuming 31% protein binding and retina-choroid equal to free plasma concentration) of the same compound?
A: 0.30 µM

Q: What about the mean plasma concentration ([2]; oral dose of 20 mg per day) of the same compound?
A: 95 ng/mL

Q: And the “dose limiting side effects” value ([3]; oral delivery)?
A: dizziness, lightheadedness and slurred speech

Q: And the “other adverse events associated with CNS excitation” value ([3]; oral dosages of 5 to 30 mg/day)?
A: anxiety, dissociation, dry mouth, headache, nervousness, slurred speech, tiredness and weakness

Q: And the protein binding [4]?
A: 31%

Q: And the “half-life in the posterior globe (qualitative)” value ([5]; albino and pigmented rabbits, topical 0.74% (w/v) solution)?
A: relatively long

Q: And the “binding to ocular melanin” value ([5]; pigmented tissues, autoradiography intensity)?
A: binds to the ocular melanin

Q: What about the “presence in posterior ocular tissues” value ([5]; topical 0.74% (w/v) aqueous isotonic solution pH 7.4, albino and pigmented rabbits) of the same compound?
A: present in the posterior sclera, choroid and/or retina

Q: What about the “improvement of tolerability, factor” value (Rabbits) of the same compound?
A: 5-8
